Experiments:
[1] = tested on: PCNA, CyclinD1; assay: qRT-PCR of UVB-induced proliferation-related molecule expression in skin; type: in vivo, mouse; settings: 1.0% GDL feed 2 weeks; UVB 40 mJ/cm^2; 24 hours after irradiation
Experimental: (§1) HR-1 hairless mice (female, 8 weeks of age) (Japan SLC, Inc.) were bred in conditions of a temperature of 23±1° C., a humidity of 50±1%, and a lighting time of 7:00 to 19:00, and the mice freely ingested feed and water during the test period. […] After the two-week ingestion term, two sites (an irradiation site and a non-irradiation site) of 1.5 cm×1.0 cm were set in contiguity with each other on the back of the mouse under pentobarbital anesthesia, and irradiation was applied to the irradiation site in a UVB exposure dose of 1 mW/cm^2 for 40 seconds (40 mJ/cm^2). After 24 hours from the irradiation, blood was drawn from a heart, and the skin was taken from the UVB non-irradiation site and the irradiation site, from which RNA was extracted. A gene expression level of the molecule, shown below, was quantified from the extracted RNA according to qRT-PCR. […]

[2] = tested on: MMP13, MMP2, MMP9, MMP14; assay: qRT-PCR of UVB-induced dermal denaturation-related molecule expression in skin; type: in vivo, mouse; settings: 1.0% GDL feed 2 weeks; UVB 40 mJ/cm^2; 24 hours after irradiation
Experimental: HR-1 hairless mice (female, 8 weeks of age) (Japan SLC, Inc.) were bred in conditions of a temperature of 23±1° C., a humidity of 50±1%, and a lighting time of 7:00 to 19:00, and the mice freely ingested feed and water during the test period. […] After the two-week ingestion term, two sites (an irradiation site and a non-irradiation site) of 1.5 cm×1.0 cm were set in contiguity with each other on the back of the mouse under pentobarbital anesthesia, and irradiation was applied to the irradiation site in a UVB exposure dose of 1 mW/cm^2 for 40 seconds (40 mJ/cm^2). After 24 hours from the irradiation, blood was drawn from a heart, and the skin was taken from the UVB non-irradiation site and the irradiation site, from which RNA was extracted. A gene expression level of the molecule, shown below, was quantified from the extracted RNA according to qRT-PCR. As a TaqMan Gene Expression Assay (Applied Biosystems) probe, which specifically detects a target gene, were used Il-1b (Mm01336189_m1; IL-1b, Il-6 (Mm00446190_m1; IL-6), Gm-csf (Mm01290062_m1; GM-CSF), Tnf (Mm00443258_m1; TNFa), Ptgs2 (Mm01307329_m1; COX-2), Tlr3 (Mm01207404_m1; TLR3), Socs3 (Mm00545913_s1; SOCS3), Vcam1 (Mm01320970_m1; VCAM-1), Icam1 (Mm00516023_m1; ICAM-1), Sele (Mm00441278_m1; E-selectin), Edn1 (Mm00438656_m1; EDN1), Kit1 (Mm00442972_m1; SCF), C-kit (Mm00445212_m1; c-Kit), Lif (Mm00434761_m1; LIF), Fgf2 (Mm00433287_m1; FGF2), Hgf (Mm01135185_m1; HGF), Pcna (Mm00448100_g1; PCNA), Ccnd1 (Mm00432359_m1; CyclinD1), Mmp13 (Mm00439491_m1; MMP13), Mmp2 (Mm00439506_m1; MMP2), Mmp9 (Mm00442991_m1; MMP9), and Mmp14(Mm00485054_m1; MMP14). A target gene expression level was corrected by an expression level of an internal standard gene Rplp0 (Mm01974474_gH; RPLP0). […] The obtained values are expressed as Ave.±S.D., n=10, and as for a statistical significance test between many groups, a multiple comparison test according to Dunnett was performed (*p<0.05, **p<0.01 (vs Cont UVB+). • IL-1β: Interleukin-1β • IL-6: Interleukin-6 • GM-CSF: Granulocyte macrophage colony-stimulating factor • TNFα: Tumor necrosis factor α • COX-2: Cyclooxygenase-2 • TLR3: Toll-like receptor 3 • SOCS3: Suppressor of cytokine signaling 3 • VCAM-1: Vascular cell adhesion molecule-1 • ICAM-1: Intercellular adhesion molecule-1 • E-selectin • EDN1: Endothelin 1 • SCF: Stem cell factor (kit-ligand) • c-Kit • LIF: Leukemia inhibitory factor • FGF2: Fibroblast growth factor 2 (basic) • HGF: Hepatocyte growth factor • PCNA: Proliferating cell nuclear antigen • CyclinD1 • MMP13: Matrix metallopeptidase 13 (Collagenase 3) • MMP2: Matrix metallopeptidase 2 (Gelatinase A) • MMP9: Matrix metallopeptidase 9 (Gelatinase B) • MMP14: Matrix metallopeptidase 14 (membrane-inserted)

[3] = tested on: EDN1, c-Kit, LIF, FGF2, HGF; assay: qRT-PCR of UVB-induced melanin synthesis-related molecule expression in skin; type: in vivo, mouse; settings: 1.0% GDL feed 2 weeks; UVB 40 mJ/cm^2; 24 hours after irradiation
Experimental: (§2) HR-1 hairless mice (female, 8 weeks of age) (Japan SLC, Inc.) were bred in conditions of a temperature of 23±1° C., a humidity of 50±1%, and a lighting time of 7:00 to 19:00, and the mice freely ingested feed and water during the test period. […] After the two-week ingestion term, two sites (an irradiation site and a non-irradiation site) of 1.5 cm×1.0 cm were set in contiguity with each other on the back of the mouse under pentobarbital anesthesia, and irradiation was applied to the irradiation site in a UVB exposure dose of 1 mW/cm^2 for 40 seconds (40 mJ/cm^2). After 24 hours from the irradiation, blood was drawn from a heart, and the skin was taken from the UVB non-irradiation site and the irradiation site, from which RNA was extracted. A gene expression level of the molecule, shown below, was quantified from the extracted RNA according to qRT-PCR. As a TaqMan Gene Expression Assay (Applied Biosystems) probe, which specifically detects a target gene, were used Il-1b (Mm01336189_m1; IL-1b, Il-6 (Mm00446190_m1; IL-6), Gm-csf (Mm01290062_m1; GM-CSF), Tnf (Mm00443258_m1; TNFa), Ptgs2 (Mm01307329_m1; COX-2), Tlr3 (Mm01207404_m1; TLR3), Socs3 (Mm00545913_s1; SOCS3), Vcam1 (Mm01320970_m1; VCAM-1), Icam1 (Mm00516023_m1; ICAM-1), Sele (Mm00441278_m1; E-selectin), Edn1 (Mm00438656_m1; EDN1), Kit1 (Mm00442972_m1; SCF), C-kit (Mm00445212_m1; c-Kit), Lif (Mm00434761_m1; LIF), Fgf2 (Mm00433287_m1; FGF2), Hgf (Mm01135185_m1; HGF), Pcna (Mm00448100_g1; PCNA), Ccnd1 (Mm00432359_m1; CyclinD1), Mmp13 (Mm00439491_m1; MMP13), Mmp2 (Mm00439506_m1; MMP2), Mmp9 (Mm00442991_m1; MMP9), and Mmp14(Mm00485054_m1; MMP14). A target gene expression level was corrected by an expression level of an internal standard gene Rplp0 (Mm01974474_gH; RPLP0). An analysis was performed using 7500 Fast Real-Time PCR System (Applied Biosystems). The obtained values are expressed as Ave.±S.D., n=10, and as for a statistical significance test between many groups, a multiple comparison test according to Dunnett was performed (*p<0.05, **p<0.01 (vs Cont UVB+). • IL-1β: Interleukin-1β • IL-6: Interleukin-6 • GM-CSF: Granulocyte macrophage colony-stimulating factor • TNFα: Tumor necrosis factor α • COX-2: Cyclooxygenase-2 • TLR3: Toll-like receptor 3 • SOCS3: Suppressor of cytokine signaling 3 • VCAM-1: Vascular cell adhesion molecule-1 • ICAM-1: Intercellular adhesion molecule-1 • E-selectin • EDN1: Endothelin 1 • SCF: Stem cell factor (kit-ligand) • c-Kit • LIF: Leukemia inhibitory factor • FGF2: Fibroblast growth factor 2 (basic) • HGF: Hepatocyte growth factor • PCNA: Proliferating cell nuclear antigen • CyclinD1 • MMP13: Matrix metallopeptidase 13 (Collagenase 3) • MMP2: Matrix metallopeptidase 2 (Gelatinase A) • MMP9: Matrix metallopeptidase 9 (Gelatinase B) • MMP14: Matrix metallopeptidase 14 (membrane-inserted)

[4] = tested on: HR-1 hairless mice; assay: Ultraviolet-induced erythema (a* value) and epidermal thickness after oral GDL mixed feed; type: in vivo, mouse; settings: UVB 40 mJ/cm^2
Experimental: HR-1 hairless mice (female, 8 weeks of age) (Japan SLC, Inc.) were bred in conditions of a temperature of 23±1° C., a humidity of 50±1%, and a lighting time of 7:00 to 19:00, and the mice freely ingested feed and water during the test period. […] After the two-week ingestion term, two sites (an irradiation site and a non-irradiation site) of 1.5 cm×1.0 cm were set in contiguity with each other on the back of the mouse under pentobarbital anesthesia, and irradiation was applied to the irradiation site in a UVB exposure dose of 1 mW/cm^2 for 40 seconds (40 mJ/cm^2). A degree of erythema was evaluated after 2 days from the irradiation by a skin color (a*value) measurement using a spectrophotometer SE-6000 (Nippon Denshoku Industries Co., Ltd.). The a*value is an index showing redness of the skin color, and it can be said that the skin turns more red, namely, the more erythema are generated, as the a* value is increased.
After the measurement, blood was drawn from a heart under deep anesthesia, and the skin was taken from the UVB non-irradiation site and the irradiation site. […] As for an epidermal thickness, an average value of epidermal thicknesses at 15 arbitrary points per tissue was defined as the epidermal thickness of the tissue.

[5] = tested on: healthy males; assay: Human crossover test, capsule including glucono-δ-lactone: MED, erythema, pigmentation after UVB; type: in vivo; settings: 2000 mg glucono-δ-lactone per day orally
Experimental: A 4-week ingestion interval was provided between the first half and the last half of the crossover test. Glucono-δ-lactone, which is a test product, is a food additive (Fuso Chemical Co., Ltd.), and the intake was divided into twice a day for ingestion. After a 3-week ingestion term, irradiation was applied to an upper arm inside part with a UVB intensity of 1 mW/cm^2 for 7 different time periods, each at different sites (an irradiation area of 0.6 cm×1.0 cm per site). After 24 hours from the UVB irradiation, an MED value (the minimum erythema dose) was visually evaluated.
After the 3-week ingestion term, irradiationwith a radiation dose corresponding to 2 MED was applied to an area of 1.5 cm×1.5 cm on the upper arm inside part with a UVB intensity of 1 mW/cm^2. After 24 hours from the UVB irradiation, a ΔAa*value (erythema intensity: a difference from that in the non-irradiation site) was measured using a spectrophotometer. Further, after one week from the UVB irradiation, a ΔL*value (degree of pigmentation: a difference from that in the non-irradiation site) in each irradiation site wasmeasuredusing the spectrophotometer. The obtained values are expressed as Ave.±S.D., n=10, and as for a statistical significance test between the two groups, a paired t-test was performed (*p<0.05, **p<0.01).

[6] = tested on: HRM-2 hairless mice; assay: Long-term repeated UVB irradiation (20 weeks): pigmentation, stratum corneum function, skin elasticity; type: in vivo, mouse; settings: 2.0% GDL feed
Description: After a test feed was previously ingested for 3 weeks, UVB irradiation was applied to the UVB irradiation groups once per day over 20 weeks. As an ultraviolet resistance was obtained by continuous irradiation, a UVB irradiation intensity was increased from 40 mJ/cm^2 to 130 mJ/cm^2 in stages (irradiation in 0 to the first week: 40 mJ/cm^2, irradiation in the second to the forth weeks: 54 mJ/cm^2, irradiation in the fifth to the seventh weeks: 72 mJ/cm^2, irradiation in the eighth to the twelfth weeks: 108 mJ/cm^2, irradiation in the thirteenth to the fourteenth weeks: 120 mJ/cm^2, irradiation in the fifteenth to twentieth weeks: 130 mJ/cm^2). During the UVB irradiation term, the test feed was ingested. At the time of the grouping, and the irradiation 0th, 4th, 8th, 12th, 16th, and 20th weeks, the measurements of L*values using a spectrophotometer, TEWL values using a Tewameter, and stratum corneum moisture contents (the Capacitance value) using a Corneometer were performed. At the irradiation 20th week, skin physical parameters were measured using a Cutometer. The obtained values are expressed as Ave.±S.D., n=10-11, and the multiple comparison test was performed according to Tukey-Kramer.

[7] = tested on: VCAM-1, ICAM-1, E-selectin; assay: qRT-PCR of UVB-induced adhesion molecule expression in skin; type: in vivo, mouse; settings: 1.0% GDL feed 2 weeks; UVB 40 mJ/cm^2; 24 hours after irradiation
Experimental: as §1

[8] = tested on: IL-1β, IL-6, GM-CSF, TNFα, COX-2, TLR3, SOCS3; assay: qRT-PCR of UVB-induced inflammation-related gene expression in skin; type: in vivo, mouse; settings: 1.0% GDL feed 2 weeks; UVB 40 mJ/cm^2; 24 hours after irradiation; corrected by Rplp0
Experimental: as §2

[9] = tested on: IGF-1; settings: applied to the skin; cited from earlier work
[10] = UVB once per day, 40 to 130 mJ/cm^2, after the UV irradiation 8th week or 12th week

O=C1O[C@H](CO)[C@@H](O)[C@H](O)[C@H]1O [GDL, Glucono-δ-lactone]
CyclinD1 expression [1]: suppressed
PCNA expression [1]: suppressed
collagenase (MMP13) expression [2]: suppressed
gelatinase MMP2 expression [2]: suppressed
gelatinase MMP9 expression [2]: suppressed
membrane-associated MMP (MMP14) expression [2]: suppressed
EDN1 expression [3]: significantly reduced
FGF2 expression [3]: significantly reduced
HGF expression [3]: significantly reduced
LIF expression [3]: significantly reduced
c-Kit expression [3]: significantly reduced
increase of a*values due to the UVB irradiation (erythema) ([4]; 0.5% and 1% GDL mixed feed for 2 weeks, 2 days after irradiation): concentration-dependently suppressed
a* value in the irradiation sites compared to the irradiation sites in the control group ([4]; 1% GDL group, feed for 2 weeks, 2 days after irradiation): significant suppression
increase of epidermal thickness in the irradiation sites compared to control group ([4]; GDL groups (0.5%, 1%), feed for 2 weeks, HE stain): significantly suppressed
Δa*values (erythema intensity) compared to the placebo group ([5]; 2 MED UVB, after 24 hours from the UVB irradiation): significantly decreased
AL* values (degree of pigmentation) compared to the placebo group ([5]; 2 MED UVB, after one week from the UVB irradiation): significantly decreased
MED values (minimum erythema dose) compared to the placebo group ([5]; after 3-week ingestion, 24 hours after UVB, upper arm inside): significantly high
reduction of the skin viscoelasticity (Uv/Ue) ([6]; UVB once per day over 20 weeks, Cutometer at irradiation 20th week): suppressed
decrease of L*value caused by the UVB irradiation (pigmentation) [6, 10]: suppressed
decrease of stratum corneum moisture content (the Capacitance value) caused by the UVB irradiation [6, 10]: suppressed
ICAM-1 expression [7]: suppressed
VCAM-1 expression [7]: suppressed
COX-2 gene expression in irradiation sites vs control [8]: significantly suppressed
GM-CSF gene expression in irradiation sites vs control [8]: significantly suppressed
IL-1β gene expression in irradiation sites vs control [8]: significantly suppressed
IL-6 gene expression in irradiation sites vs control [8]: significantly suppressed
SOCS3 gene expression in irradiation sites vs control [8]: significantly suppressed
TLR3 gene expression in irradiation sites vs control [8]: significantly suppressed
TNFα gene expression in irradiation sites vs control [8]: significantly suppressed

O=C(O)[C@H](O)[C@@H](O)[C@H](O)[C@H](O)CO [gluconic acid]
IGF-1 secretion [9]: promoted

Source: patent US20160136130A1, “Oral Ultraviolet Resistance Enhancer” (KAO CORPORATION, priority 2013, published 2016)
